Measurements as given in ChEMBL document CHEMBL3886153, “HIV protease inhibitors” (2015).

These molecules were tested against Gag-Pol polyprotein (Human immunodeficiency virus type 1 group M subtype B (isolate HXB2)(HIV-1), UniProt P04585) (assay: Inhibition Assay: The inhibition of WT HIV-1 protease was studied using the reaction of the protease (expressed in Eschericia coli) with a peptide substrate [Val-Ser-Gln-Asn-(betanaphthyl)Ala-Pro-Ile-Val (SEQ ID NO:1)]. Compounds were tested using Procedure A. In Procedure A, the test compound was first preincubated with the enzyme in assay buffer (50 mM sodium acetate, pH 5.5, 100 mM NaCl, and 0.1% BSA) for 30 minutes at room temperature. Substrate was then added to 400 micromolar in a total volume of 80 microliters containing 10 picomolar HIV-1 protease and the reaction was incubated for 1 hour at 30° C. The reaction was quenched with the addition of 120 microliters of 10% phosphoric acid. The product formation was determined after separation of product and substrate on a Zorbax Eclipse XDB-C18 column (Agilent Technologies, Santa Clara, Calif.) connected to an Agilent 1100 high performance liquid chromatography system with fluorescence detection (excitation 270 nanometer and emission 330 nanometer).).

| Compound | IC50 [nM] |
| --- | --- |
| COC(=O)N[C@H](C(=O)N[C@H](c1ccc(C(CO)N(CCC(C)(C)C)S(=O)(=O)c2ccc(OC)nc2)s1)C(F)(F)F)C(c1ccccc1)c1ccccc1 (stereo partly specified) | 27.5 |
| COC(=O)N[C@H](C(=O)NCc1ccc([C@@H](CO)N(CC2CC(F)(F)C2)S(=O)(=O)c2ccc(C(C)O)cc2)s1)C(c1ccccc1)c1ccccc1 (stereo partly specified) | 8.97 |
| COC(=O)N[C@H](C(=O)NCc1ccc([C@@H](CO)N(CC2CC(F)(F)C2)S(=O)(=O)c2ccc(C(C)=O)cc2)s1)C(c1ccccc1)c1ccccc1 | 11.9 |
| COC(=O)N[C@H](C(=O)N[C@H](c1ccc([C@@H](CO)N(CCC(C)(C)C)S(=O)(=O)c2ccc(=O)[nH]c2)s1)C(F)(F)F)C(c1ccccc1)c1ccccc1 | 9.42 |
| COC(=O)N[C@H](C(=O)N[C@H](c1ccc([C@@H](CO)N(C(C)C)S(=O)(=O)c2ccc(N)cc2)s1)C(F)(F)F)[C@@H](c1ccccc1)c1c[nH]c2ncccc12 | 3.96 |
| COC(=O)N[C@H](C(=O)N[C@H](c1ccc([C@@H](CO)N(C(C)C)S(=O)(=O)c2ccc(N)c(Cl)c2)s1)C(F)(F)F)C(c1ccccc1)c1ccccc1 | 92.5 |
| COC(=O)N[C@H](C(=O)N[C@H](c1ccc([C@@H](CO)N(C(C)C)S(=O)(=O)c2cc(N)cs2)s1)C(F)(F)F)C(c1ccccc1)c1ccccc1 | 21.7 |
| COC(=O)N[C@H](C(=O)N[C@H](c1ccc([C@@H](CO)N(CCC(C)(C)C)S(=O)(=O)c2cn3ncnc3cn2)s1)C(F)(F)F)C(c1ccccc1)c1ccccc1 | 3.59 |
| COC(=O)N[C@H](C(=O)N[C@H](c1ccc([C@@H](CO)N(C(C)C)S(=O)(=O)c2ccc(Cl)s2)s1)C(F)(F)F)C(c1ccccc1)c1ccccc1 | 184 |
| COC(=O)N[C@H](C(=O)N[C@H](c1ccc([C@@H](CO)N(CCC(C)(C)C)S(=O)(=O)C2=CC3NC=C(Cl)C3C=C2)s1)C(F)(F)F)C(c1ccccc1)c1ccccc1 (stereo partly specified) | 43.8 |
| COC(=O)N[C@H](C(=O)NCc1ccc([C@@H](CO)N(CC2CC(F)(F)C2)S(=O)(=O)c2ccc(C(O)C(F)(F)F)cc2)s1)C(c1ccccc1)c1ccccc1 (stereo partly specified) | 26.9 |
